Patent publication US20230107538A1, “CYCLOALKYL-CONTAINING CARBOXYLIC ACIDS AND USES THEREOF” (LIMINAL BIOSCIENCES LIMITED, priority 2019, published 2023)

Columns and labels:
human GPR120 = biological target: T1, human GPR120 (Homo sapiens, UniProt Q5NUL3); assay: GPR120 β-arrestin 2 recruitment BRET, agonist mode; format: cell-based; details: HEK293 cells, read-out: GPR120 (agonist mode) EC50 β-arr2
T1 sequence (Q5NUL3 1-361): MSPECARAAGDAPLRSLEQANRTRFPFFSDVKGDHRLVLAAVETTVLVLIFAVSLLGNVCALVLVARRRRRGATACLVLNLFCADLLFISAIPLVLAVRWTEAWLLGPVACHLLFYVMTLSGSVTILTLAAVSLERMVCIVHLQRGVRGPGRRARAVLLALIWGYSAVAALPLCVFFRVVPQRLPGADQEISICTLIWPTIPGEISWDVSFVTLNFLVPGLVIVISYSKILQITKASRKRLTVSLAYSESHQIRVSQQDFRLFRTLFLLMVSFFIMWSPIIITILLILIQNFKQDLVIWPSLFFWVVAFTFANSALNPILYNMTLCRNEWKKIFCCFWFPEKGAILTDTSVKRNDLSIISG
From the text: (§1) Plasmids: The cDNA clones for human GPR40 and GPR84 receptors, human β-arrestin 2, Gαi2, Gβ1, and Gγ2 were obtained from the cDNA Resource Center (www.cdna.org). A plasmid encoding the human GPR120-L (long isoform) cDNA was obtained from R&D Systems. GPR120-S (short isoform) was generated by replacing the BglII-BsgI fragment from GPR120-L by a gBlock gene fragment (Integrated DNA Technologies, IA) lacking the DNA sequence corresponding to the extra 16 amino acids found in the third intracellular loop of the long form. GFP10 (F64L, S147P, S202F and H231L variant of Aequorea victoria GFP) gBlocks gene fragments (Integrated DNA Technologies) and linker were inserted in frame at the N-terminus of human Gγ2, or at the C-terminus of GPR40 and GPR120. Rluc8 (A55T, C124A, S130A, K136R, A143M, M185V, M253L, and S287L variant of the Renilla luciferase) gBlocks gene fragment (Integrated DNA Technologies) was inserted with linkers in between residues 91 and 92 of Gα2 or at the N-terminus of β-arrestin 2.
(§2) BRET measurements: a Gαi bioluminescence resonance energy transfer (BRET) biosensor was used to directly monitor GPR84-mediated activation of Gαi. The Gαi biosensor consists of a Rluc8-tagged Gαi2 subunit, a GFP10-tagged Gγ2 subunit, and an untagged Gβ1. Agonist stimulation and ensuing GPR84 activation triggers a physical separation between the RLuc8-Gαi donor and the GFP10-Gγ2 acceptor, resulting in a decrease in BRET signal whose amplitude is correlated to ligand efficacy. A BRET-based assay that allows the monitoring of Rluc8-tagged β-arrestin 2 recruitment to GFP10-tagged GPR40 or GFP10-tagged GPR120 was used to assess GPR40 or GPR120 activation. Transiently transfected HEK293 cells were seeded in 96-well white clear bottom Costar microplates (Fisher Scientific) coated with poly-D-lysine (Sigma-Aldrich) and left in culture for 24 hours. Cells were washed once with Tyrode's buffer (140 mmol/L NaCl, 1 mmol/L CaCl2, 2.7 mmol/L KCl, 0.49 mmol/L MgCl2, 0.37 mmol/L NaH2PO4, 5.6 mmol/L glucose, 12 mmol/L NaHCO3, and 25 mmol/L HEPES, pH 7.5) and the Rluc8 substrate coelenterazine 400A (Prolume, Lakeside, Ariz.) added at a final concentration of 5 μmol/L in Tyrode's buffer. Ligands were incubated with cells at room temperature for 5 minutes (G protein) or 25 minutes (β-arrestin) before reading BRET signal. In GPR84 antagonist mode, cells were treated with 125 μmol/L of the GPR84 agonist sodium decanoate in combination with test compounds. BRET readings were collected using an Infinite M1000 microplate reader (Tecan, Morrisville, N.C.). BRET^2 readings between Rluc8 and GFP10 were collected by sequential integration of the signals detected in the 370 to 450 nm (Rluc8) and 510 to 540 nm (GFP10) windows. The BRET signal was calculated as the ratio of light emitted by acceptor (GFP10) over the light emitted by donor (Rluc8). The values were corrected to net BRET by subtracting the background BRET signal obtained in cells transfected with Rluc8 constructs alone. Ligand-promoted net BRET values were calculated by subtracting vehicle-induced net BRET from ligand-induced net BRET.

human GPR84 [1] = biological target: T2, human GPR84 (Homo sapiens, UniProt Q9NQS5); assay: GPR84 Gαi BRET biosensor, agonist activity; format: cell-based; details: HEK293 cells
T2 construct: host or cells: HEK293 (transient)
From the text: as §1, §2

human GPR40 = biological target: T3, human GPR40 (Homo sapiens, UniProt O14842); assay: GPR40 β-arrestin 2 recruitment BRET, agonist mode; format: cell-based; details: HEK293 cells, read-out: GPR40 (agonist mode) EC50 β-arr2
T3 construct: host or cells: HEK293 (transient)
From the text: as §1, §2

human GPR84 [2] = biological target: T2, human GPR84; assay: GPR84 Gαi BRET biosensor, antagonist mode (125 μmol/L sodium decanoate); format: cell-based; details: HEK293 cells, with 125 μmol/L sodium decanoate
From the text: as §1, §2

[3] = biological target: T4, human PPARα ligand binding domain (LBD) (Homo sapiens, UniProt Q07869); assay: Cell-based GAL4 PPAR transactivation assay in HEK293 cells, PPARα; details: 24 h
T4 construct: human PPARα (S167-Y468); expressed in transfected cells; host or cells: HEK293
T4 sequence (Q07869 167-468): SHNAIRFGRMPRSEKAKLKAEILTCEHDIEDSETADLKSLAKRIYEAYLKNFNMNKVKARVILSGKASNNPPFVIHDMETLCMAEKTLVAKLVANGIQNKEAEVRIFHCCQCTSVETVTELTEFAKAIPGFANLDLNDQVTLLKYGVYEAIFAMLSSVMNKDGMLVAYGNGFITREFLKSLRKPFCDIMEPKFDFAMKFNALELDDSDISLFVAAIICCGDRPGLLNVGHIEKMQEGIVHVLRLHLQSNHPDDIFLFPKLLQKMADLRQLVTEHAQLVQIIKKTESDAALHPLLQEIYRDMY
Description: (§3) The peroxisome proliferator-activated receptors (PPARs), PPARα, PPARδ, and PPARγ are ligand-dependent transcription factors that control expression of several key metabolism-associated genes. The transcriptional activity of representative compounds of formula I to these receptors was assessed using a cell-based GAL4 transactivation assay in HEK293 cells transfected with either PPARα, PPARδ, or PPARγ ligand binding domain (LBD), and was compared to that of the full control agonists GW7647 (PPARα), GW0742 (PPARδ), and rosiglitazone (PPARγ).
(§4) Plasmids: The hinge region and ligand binding domain (LBD) from human PPARα (S167-Y468), PPARδ (S139-Y440) and PPARγ (S176-Y477) were PCR-amplified from a PPARα cDNA clone (cDNA Resource Center, http://www.cdna.org) or from PPARδ1 and PPARγ1 LBD gBlocks™ gene fragments (Integrated DNA Technologies). The PPAR LBD PCR products were inserted in frame with the GAL4 DNA binding domain in the pFN26A(BIND)-hRlu-neo Flexi vector (Promega) at SgfI and PmeI sites to generate GAL4-PPAR-Rluc.
(§5) Cell-based PPAR transactivation assay. HEK293 cells were co-transfected with pGL4.35[luc2P/9XGAL4UAS/Hygro] (Promega) and GAL4-PPAR-Rluc plasmids, and after 24 h of incubation were treated with compounds for 24 h. Luciferase activity was determined with the Dual Glo™ luciferase assay (Promega). Firefly luminescence was normalized to the constitutively expressed Renilla luminescence, and results expressed as fold induction of vehicle control or percentage of reference agonist maximal activity.

[4] = biological target: T5, human PPARδ ligand binding domain (LBD) (Homo sapiens, UniProt Q03181); assay: Cell-based GAL4 PPAR transactivation assay in HEK293 cells, PPARδ; details: 24 h
T5 construct: PPARδ (S139-Y440); host or cells: HEK293
T5 sequence (Q03181 139-441 limits assumed): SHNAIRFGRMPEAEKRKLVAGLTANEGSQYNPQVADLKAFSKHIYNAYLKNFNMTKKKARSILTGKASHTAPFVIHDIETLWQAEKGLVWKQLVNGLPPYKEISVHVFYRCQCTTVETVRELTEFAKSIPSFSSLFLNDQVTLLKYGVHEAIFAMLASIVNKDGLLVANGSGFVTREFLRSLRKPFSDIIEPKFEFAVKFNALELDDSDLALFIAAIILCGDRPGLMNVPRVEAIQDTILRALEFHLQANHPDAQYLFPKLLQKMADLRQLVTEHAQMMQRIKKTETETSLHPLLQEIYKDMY
Description: as §3, §4, §5

[5] = biological target: T6, human PPARγ ligand binding domain (LBD) (Homo sapiens, UniProt P37231); assay: Cell-based GAL4 PPAR transactivation assay in HEK293 cells, PPARγ; details: 24 h
T6 construct: PPARγ (S176-Y477); host or cells: HEK293
T6 sequence (P37231 176-477 isoform P37231-2): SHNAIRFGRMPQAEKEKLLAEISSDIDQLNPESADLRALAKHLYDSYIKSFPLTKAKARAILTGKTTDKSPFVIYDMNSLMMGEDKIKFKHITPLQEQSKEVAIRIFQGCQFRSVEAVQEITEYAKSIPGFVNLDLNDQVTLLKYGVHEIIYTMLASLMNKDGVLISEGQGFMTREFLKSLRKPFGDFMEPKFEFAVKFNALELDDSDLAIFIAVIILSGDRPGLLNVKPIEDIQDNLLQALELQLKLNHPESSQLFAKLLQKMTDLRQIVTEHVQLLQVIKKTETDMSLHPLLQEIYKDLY
Description: as §3, §4, §5

T2 sequence (Q9NQS5 whole entry): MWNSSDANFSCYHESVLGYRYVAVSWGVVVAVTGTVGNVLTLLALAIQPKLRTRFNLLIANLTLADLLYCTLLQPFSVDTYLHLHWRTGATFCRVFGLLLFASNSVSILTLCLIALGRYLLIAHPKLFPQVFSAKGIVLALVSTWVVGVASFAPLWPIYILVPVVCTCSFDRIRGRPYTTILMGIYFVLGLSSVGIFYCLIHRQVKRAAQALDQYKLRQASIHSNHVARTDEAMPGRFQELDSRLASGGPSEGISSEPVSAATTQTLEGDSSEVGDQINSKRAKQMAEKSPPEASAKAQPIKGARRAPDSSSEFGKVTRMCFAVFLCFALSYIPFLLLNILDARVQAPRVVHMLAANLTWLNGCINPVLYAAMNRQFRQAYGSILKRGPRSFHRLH
T3 sequence (O14842 whole entry): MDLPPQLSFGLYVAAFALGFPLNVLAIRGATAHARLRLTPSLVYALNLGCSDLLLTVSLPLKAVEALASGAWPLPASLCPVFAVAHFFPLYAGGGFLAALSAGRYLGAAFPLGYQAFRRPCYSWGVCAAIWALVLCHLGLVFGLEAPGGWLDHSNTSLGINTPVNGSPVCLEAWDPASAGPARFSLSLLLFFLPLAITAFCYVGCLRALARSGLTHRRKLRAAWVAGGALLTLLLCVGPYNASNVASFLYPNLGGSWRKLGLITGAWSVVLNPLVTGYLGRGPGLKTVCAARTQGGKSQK

Row | Compound | EC50 (human GPR120) | EC50 (human GPR84 [1]) | EC50 (human GPR40) | IC50 (human GPR84 [2]) | PPARα (GAL4 reporter) % efficacity relative to GW7647 [3] | PPARδ (GAL4 reporter) % efficacity relative to GW0742 [4] | PPARγ (GAL4 reporter) % efficacity relative to rosiglitazone [5]
1 | CCCCCC1CC(=CC(=O)O)C1 (centres unmarked) | 88 µM | < 16 µM | 70 µM |  |  |  | 
2 | CCCCCC=C1CC(C(=O)O)C1 (centres unmarked) | > 500 µM |  | 252 µM | 131 µM |  |  | 
3 | CCCCCC1CC/C1=C/C(=O)O (centres unmarked) | 307 µM |  | 211 µM | 180 µM |  |  | 
4 | CCCCCC1CC(CC(=O)O)C1(C)C (centres unmarked) | 90 µM |  | 15 µM | 49 µM |  |  | 
5 | CCCCCCC1CC1C(=O)C(=O)[O-].[Na+] (centres unmarked) |  |  |  |  | 34% | −3% | 2%
6 | [2H]C1([2H])C(CCCCCC)C1CC(=O)[O-].[Na+] (centres unmarked) |  |  |  |  | 20% | 2% | 3%
7 | CC1(C)CC1CCCCC/C=C/C(=O)[O-].[Na+] (centres unmarked) |  |  |  |  | 10% | 30% | 1%
8 | CC1(C)CC1CCCCC1CC1C(=O)[O-].[Na+] (centres unmarked) |  |  |  |  | 43% | 5% | 5%

Now from value to molecule:

Row | EC50 (human GPR120) | EC50 (human GPR84 [1]) | EC50 (human GPR40) | IC50 (human GPR84 [2]) | PPARα (GAL4 reporter) % efficacity relative to GW7647 [3] | PPARδ (GAL4 reporter) % efficacity relative to GW0742 [4] | PPARγ (GAL4 reporter) % efficacity relative to rosiglitazone [5] | Compound
9 | > 500 µM | 35 µM | 87 µM |  |  |  |  | CCCCCC1CC(CC(=O)O)C1 (centres unmarked)
10 | 382 µM | 73 µM | 63.4 µM |  |  |  |  | CCCCCCC1CC(C(=O)O)C1 (centres unmarked)
11 | > 500 µM |  | 83 µM | 173 µM |  |  |  | CCCCCC1CCC1CC(=O)O (centres unmarked)
12 | > 31 µM |  | 10 µM | 9 µM |  |  |  | CCCCCCC1C(CCC(=O)O)C1(C)C (centres unmarked)
13 | > 63 µM |  | 21 µM | > 63 µM |  |  |  | CCCCCCCC1(CC(=O)O)CCC1
14 |  |  |  |  | 90% | 4% | 16% | CCCCCCCC1CC1C(=O)[O-].[Na+] (centres unmarked)
15 | > 125 µM |  | 30 µM | 56 µM |  |  |  | CCCCCCC1C(CC(=O)O)C1(C)C (centres unmarked) [drawing 299]
16 | > 63 µM |  | > 63 µM |  |  |  |  | CCCCCCC1C(CC(=O)O)C1(C)C (centres unmarked) [drawing 302]
17 | > 500 µM |  | 174 µM | 468 µM |  |  |  | CCCCCCC1C(CC(=O)O)C1(C)C (centres unmarked) [drawing 311]
